In patent US7205322B2, “Thiazolidine compounds as calcium sensing receptor modulators” (Bristol-Myers Squibb Company, priority 2003, dated 2007):
Counter-ions that a name gives are not always drawn.

How the values were obtained:
[1] = OVX rats; oral administration; in the presence of an anti-resorptive agent (Gowen et al. 2000); cited from earlier work
[2] = intravenous bolus injection; cited from earlier work
[3] = postmenopausal women; placebo-controlled trial (Neer et al. 2001); cited from earlier work

## COc1ccc(CC(C)(C)NC[C@H](O)[C@H]2CSCN2Cc2cccc(C#N)c2)cc1 (stereo in doubt) (as salt: hydrochloride) [Example 3, 3-(4-{1-Hydroxy-2-[2-(4-methoxy-phenyl)-1,1-dimethyl-ethylamino]-ethyl}-thiazolidin-3-ylmethyl)-benzonitrile]
other
  melting point: 158 to 163 °C

## CC(C)(Cc1ccc2ccccc2c1)NC[C@H](O)[C@H]1CSCN1Cc1ccc(SCc2ccco2)c([N+](=O)[O-])c1 (stereo in doubt) [Example 4, 2-(1,1-Dimethyl-2-naphthalen-2-yl-ethylamino)-1-{3-[4-(furan-2-ylmethylsulfanyl)-3-nitro-benzyl]-thiazolidin-4-yl}-ethanol]
other
  melting point: 80 to 85 °C

## CC(C)(Cc1ccc2ccccc2c1)NC[C@@H](O)COc1cccc(Cl)c1C#N [NPS-2143]
[1]
  effect on bone mass: increase in bone mass
[2]
  effect on serum PTH: transient increase in serum PTH

## PTH peptide fragment (1–34): PTH peptide fragment (1–34), parathyroid hormone fragment; stimulator of bone formation (SVSEIQLMHNLGKHLNSMERVEWLRKKLQDVHNF; Parathyroid hormone; UniProt P01270 32-65, looked up, fragment)
[3]
  reduction of the risk of non-traumatic, non-spine fractures: 54%
  reduction of the risk of spine fractures: 65%
